Reference: patent US20200182861A1, “METHOD FOR DIFFERENTIATION OF PLURIPOTENT STEM CELLS INTO VASCULAR BED CELLS” (Hoffmann-La Roche Inc., priority 2011, published 2020)

Experiments:
hESCs = test: Direct comparison BIO versus CP21R7 to differentiate hESCs into CD144+ endothelial cells; assay type: cell-based, human
Procedure: FIG. 6: Direct comparison BIO versus CP21R7 to differentiate hESCs into endothelial cells CD144+. hESCs have been differentiated in monolayer conditions in parallel using different concentrations at Day 1 (0 μM, 0.5 μM, 1 μM, 2 μM) for the BIO or for the COMPOUND 21 (CP21R7) as supplement to the carrier medium N2B27, followed at Day 4 with induction medium VEGF-A 50 ng/ml and Forskolin 5 μM for all the conditions.
The method of Tatsumi et al employs the BIO inhibitor at different concentrations as supplement to the N2B27. Although Tatsumi et al. describes that the pluripotent stem cells were differentiated to endothelial cells with about 20% efficiency (determined by endothelial cells expressing the surface marker CD144), we were not able to reproduce such results.

human PSCs = test: Endothelial induction by GSK3 inhibitors, flow cytometric VE-Cadherin (CD144) expression on day 5; assay type: cell-based
Procedure: (§1) The potential of the most widely used commercial GSK30 inhibitors and CP21R7 to activate β-catenin-mediated TCF/LEF transcription in human PA-1 reporter cells (DeAlmeida et al., 2007) was evaluated. […] Unmodified PA-1 cells are used to measure cellular viability via ATP levels and GLI-luciferase responsive reporter PA-1 cells as counter screen to monitor changes in general transcriptional activity. […] On the outcome of the β-Catenin reporter assay, three GSk3β inhibitors namely BIO, CHIR and CP were exploited for their potential to drive vascular lineage commitment of human PSCs. In addition to the listed inhibitors we include SB216763 (SB) due to its structure similarity to CP (see FIG. 18). Pluripotent stem cells were (i) plated as single-cells on mTeSR1 medium supplemented with Y-27632 a Rho-kinase inhibitor (Watanabe et al., 2007); (ii) incubated in priming medium (N2B27 medium supplemented with a GSK303 inhibitor) and (iii) incubated in induction medium (StemPro SFM 34 medium supplemented with Vascular Endothelial Growth Factor (VEGF; Sumi et al., 2008)) as outlined above under 1 (i) and (ii).
The Following GSK3 Inhibitors were Used: CHIR99021 GSK3-Inhibitor: Catalogue Number: 361559 from Merck Millipore SB216763 GSK3-Inhibitor: Catalogue Number: 361566 from Merck Millipore BIO GSK3-Inhibitor: Catalogue Number: 3 361550 from Merck Millipore CP21R7: 3-(3-Amino-phenyl)-4-(1-methyl-1H-indol-3-yl)-pyrrole-2,5-dione (also referred to as “compound 21” herein; see e.g. L. Gong et al; Bioorganic & Medicinal Chemistry Letters 20 (2010), 1693-1696).
Proliferation into vascular bed cells was detected on Day 5. Vascular identity is confirmed by the expression of vascular endothelial-cadherin (VE-Cadherin). The capability to induce vascular bed cells was determined by VE-Cadherin (CD144) expression on day 5 (FIG. 19). […] Remarkably, up to 35% of cells expressed CD144 at an optimal concentration of 1 μM from day five on. […] CHIR, which has a divergent chemical structure than CP induced CD144 expression also in a parabolic curve reaching an optimum at 6 μM. […] Although, SB and CP share the same chemical backbone, divergent moieties may influence the chemical properties, e.g. cellular permeability or solubility. In carrier treated cells no VE-CADHERIN expression was detected (FIG. 19).

[1] = test system: β-catenin-mediated TCF/LEF transcription; test: TCF/LEF reporter assay in human PA-1 reporter cells; assay type: cell-based; conditions: for dose-response activation curve: dose-response assay
Procedure: FIG. 19: Compound selection. TCF/LEF reporter assay in human PA-1 reporter cells (DeAlmeida et al., 2007). After the treatment of reporter cells with GSk3 inhibitors at indicated concentrations β-catenin-mediated TCF/LEF transcriptional activity was measured as luciferase activity. The Compound Cp21R7 induced highest luciferase activity at a concentration of 3 μM.
as §1

[2] = test system: GLI-luciferase responsive reporter PA-1 cells; test: GLI-luciferase responsive reporter PA-1 cells counter screen (general transcriptional activity); assay type: cell-based, human
Procedure: as §1

Unmodified PA-1 cells = test: Cellular viability via ATP levels in unmodified PA-1 cells; assay type: cell-based, human
Procedure: as §1

[3] = test system: human embryonic stem cell; conditions: 5 μM 3 days, then VEGF 2 days; Tatsumi et al.; cited from earlier work
[4] = test system: Human Embryonic Stem cells; test: Quantification of CD144+ stem cell-derived endothelial cells by image based high content analysis
Procedure: FIG. 2A: Quantification CD144+ Stem Cell-Derived Endothelial Cells by image based high content analysis (HCA). Human Embryonic Stem cells have been differentiated in monolayer conditions with different small molecules. Upper and middle panel: Day 1 priming medium with different compounds; Day 4 induction medium+VEGF-A 50 ng/ml. Carrier N2B27 alone (upper panel, left); Wnt3a 150 ng/ml added to the priming medium (upper panel, right); SB216763 6 μM added to the priming medium (middle panel, left), CHIR 9902 2 μM added to the priming medium (middle panel, right). Lower panels: Day 1 priming medium with 2 μM Compound 21 (CP21R7); Day 4 induction medium+VEGF-A 50 ng/ml (lower panel, left) and Day 4 induction medium+VEGF-A 50 ng/ml+Forskolin 5 μM (lower panel, right). DAPI (cell nuclei) CD144 (membrane staining).
FIG. 2B: Quantification graph: Percent CD144+ positive cells.
(§2) Before the enzymatic dissociation of hPSC colonies using StemPro Accutase (Invitrogen) cells are preincubated for one hour with 10 μM ROCK-Inhibitor Y27632. 35.000 single hPSCs per cm^2 are plated onto growth factor reduced Matrigel (BD bioscience) coated cell culture plates in TeSR2 medium supplemented with 10 μM ROCK-Inhibitor. On day1 attachment medium is exchanged to N2B27 (Gibco) medium supplemented with (a) 2 μM Compound 21 (CP21R7) or (b) 1 μM Compound 21 (CP21R7) and 25 ng/ml BMP4 (R&D Systems). Cells are cultivated for additional 3 days without media change.
(§3) On day 4 priming medium is replaced with StemPro-34 SFM medium (Invitrogen) supplemented with (a) 50 ng/ml VEGF and 5 μM Forskolin or (b) 200 ng/ml VEGF and 2 μM Forskolin. On day 5 induction medium is withdrawn and cells are used for MACS separation of CD144+ cells.

pluripotent stem cells [5] = test: Flow cytometry of CD144+ endothelial cells after monolayer differentiation; assay type: cell-based, human
Procedure: FIG. 3: Flow Cytometry analysis of the pluripotent stem cell-derived CD144+ endothelial cells. Endothelial cells differentiated in monolayer conditions (priming medium 2 μM CP21R7, induction medium VEGF-A 50 ng/ml and Forskolin 5 μM) were analyzed before and after MACS sorting for the CD144+ expression. Before MACS Sorting 32.5% CD144+ endothelial cells and after MACS sorting 96.5% CD144+ endothelial cells.
as §2, §3

PSCs [6] = test: Immunostainings of differentiation markers over time; assay type: cell-based, human
Source text: Immunostainings of SOX17, OCT4, T-BRACHYURY, PECAM-1 and VE-CADHERIN support the transcriptome data (Quantification shown in FIG. 9). The protein expression of the pan-mesodermal marker T-BRACHYURY confirms an intermediate PS-like cell stage. […] The vast majority of cells reached a T-BRACHYURY peak expression on day three. On day four the expression diminished and disappeared, thereby mimicking its specific embryonic expression pattern (Tam and Loebel, 2007). Loss of pluripotency was monitored by the time-dependent decline of OCT4 expression. […] Induction of endothelial cell identity was determined by the co-expression of platelet-endothelial cell adhesion molecule-1 (PECAM1) and VE-CADHERIN. Endothelial marker expression was detected upon administration of VEGF on day 4 (FIG. 9). […] Our differentiation system enables high throughput derivation of endothelial cells within 5 days through a transient emergence of primitive streak cells.

PSCs [7] = test: Genome-wide gene expression analysis during differentiation; assay type: cell-based, human
pluripotent stem cells [8] = test: VSMC induction, flow cytometric CD31/CD140b distribution; assay type: cell-based, human; conditions: induction medium replaced by RPMI medium with 0.5 μM IWR
Source text: Cell types differed by morphology as well as by marker expression. Cobblestone-like cells with tight cell-cell contacts expressed the endothelial-specific marker VE-Cadherin. Flattened and spindle-like shaped cells stained positive for Smooth Muscle Actin (αSMA), indicating a vascular smooth muscle cell (VSMC) identity. In flow cytometric analysis cells separated into a major fraction of CD31^+/CD140^+ cells and minor fraction of CD31^−/CD140b^+ cells (FIG. 10).

SC-derived ECs = test: Tube formation assay of SC-derived ECs on Matrigel matrix; assay type: cell-based, human; conditions: data not shown
Procedure: In order to define the endothelial phenotype more profoundly, the angiogenic potential, the ability to uptake DiI-acetylated low-density lipoprotein (DiI-ac-LDL) was assessed and the dynamic modulation of the barrier function was monitored. For tube formation assays SC-derived ECs were seeded onto a Matrigel matrix.

Molecule: O=C1Nc2cc(Br)ccc2/C1=C1/Nc2ccccc2/C1=N\O [BIO, (2′Z, 3′E)-6-bromoindirubin-3′-oxime]
- maximum expression of the CD144 (hESCs; 0.5 μM at Day 1 in N2B27, induction medium VEGF-A 50 ng/ml and Forskolin 5 μM): 5%
- cytotoxicity (hESCs; already at concentrations of 1 μM): strong cytotoxicity
- toxicity to the cells (hESCs; the other concentrations (1 μM, 2 μM)): toxic to the cells
- toxicity on single cells (human PSCs; data not shown): toxic on single cells
- dose-response activation curve [1]: steep activation curve
- GLI-mediated luciferase activity ([2]; data not shown): three-fold increase
- toxicity (Unmodified PA-1 cells; concentration of 10 μM, data not shown): highly toxic
- efficiency determined by endothelial cells expressing the surface marker CD144 [3]: about 20%

Molecule: Cn1cc(C2=C(c3cccc(N)c3)C(=O)NC2=O)c2ccccc21 [CP21R7, 3-(3-Amino-phenyl)-4-(1-methyl-1H-indol-3-yl)-pyrrole-2,5-dione]
- CD144+ cells ([4]; 2 μM added to the priming medium, day 4 induction medium + VEGF-A 50 ng/ml): 40.2%
- CD144+ cells ([4]; 2 μM added to the priming medium, induction medium + VEGF-A 50 ng/ml + Forskolin 5 μM): 54.6%
- CD144 expression (hESCs; dose response 0.5 μM, 1 μM, 2 μM, induction VEGF-A 50 ng/ml and Forskolin 5 μM): up to 35%
- optimal concentration for CD144 expression (human PSCs; bell-shaped / parabolic curve, day 5): 1 µM
- cells expressed CD144 (human PSCs; optimal concentration of 1 μM, from day five on): up to 35%
- maximum increased luciferase activity ([1]; at 3 μM): 566 fold
- concentration of highest luciferase activity ([1]; bell-shaped curve): 3 µM
- dose-response activation curve [1]: steep activation curve
- general transcriptional activity [2]: minor increases of general transcriptional activity
- cell proliferation (Unmodified PA-1 cells; at maximum luciferase activity): only a modest gain of cell proliferation
- CD144 expression, cells on day six (pluripotent stem cells [5]; priming 1 μM CP with 25 ng/ml BMP4, induction 200 ng/ml VEGF with 2 μM Forskolin): up to 85%
- CD144+ endothelial cells before MACS sorting (pluripotent stem cells [5]; priming medium 2 μM CP21R7, induction medium VEGF-A 50 ng/ml and Forskolin 5 μM): 32.5%
- SOX17+ cells (PSCs [6]; CP21 alone, day three): salt and pepper staining pattern of SOX17^+ cells
- SOX17+ cells (PSCs [6]; combined application of CP and BMP4): prevented the appearance of endodermal SOX17^+ cells
- T-BRACHYURY expression (PSCs [6]; treatment with CP and BMP4): induced T-BRACHYURY expression quickly after one day
- mesoderm markers MIXL1, T/BRACHYURY, FGF4 and EOMES (PSCs [7]; 24 hours upon combined CP and BMP4 treatment): Upregulation
- pluripotency markers NANOG, UIF1 and SOX2 (PSCs [7]; 24 hours upon combined CP and BMP4 treatment, data not shown): downregulated

Molecule: O=C(Nc1cccc2cccnc12)c1ccc(N2C(=O)[C@@H]3[C@H](C2=O)[C@@H]2C=C[C@H]3C2)cc1 [IWR]
- distribution of CD31+/CD140b− and CD31−/CD140b+ cells (pluripotent stem cells [8]): inverted distribution

Molecule: Cn1cc(C2=C(c3ccc(Cl)cc3Cl)C(=O)NC2=O)c2ccccc21 [SB216763, 3-(2,4-Dichlorophenyl)-4-(1-methyl-1H-indol-3-yl)-1H-pyrrole-2,5-dione, reference compound]
- CD144+ cells ([4]; 6 μM added to the priming medium, day 4 induction medium + VEGF-A 50 ng/ml): 0.5%
- CD144 expression (human PSCs; day 5, flow cytometry): no CD144 expression was observed
- TCF/LEF luciferase expression ([1]; concentration dependent administration): negligible

Molecule: C[S+]([O-])CCCCN=C=S (centres unmarked) [Sulforaphane]
- tube formation, number of nodes, length of tubes (SC-derived ECs): perturbed tube formation and reduced the number of nodes as well as the length of tubes

Molecule: VEGF
- upregulation of endothelial markers CD34, PECAM1, CDH5 and vWF (PSCs [7]; within the first 24 hours upon VEGF, data not shown): more than 100 fold

B1: Wnt3a: Wnt3a added to the priming medium (protein, UniProt P56704 19-352, looked up)
Protein Wnt-3a: SYPIWWSLAVGPQYSSLGSQPILCASIPGLVPKQLRFCRNYVEIMPSVAEGIKIGIQECQHQFRGRRWNCTTVHDSLAIFGPVLDKATRESAFVHAIASAGVAFAVTRSCAEGTAAICGCSSRHQGSPGKGWKWGGCSEDIEFGGMVSREFADARENRPDARSAMNRHNNEAGRQAIASHMHLKCKCHGLSGSCEVKTCWWSQPDFRAIGDFLKDKYDSASEMVVEKHRESRGWVETLRPRYTYFKVPTERDLVYYEASPNFCEPNPETGSFGTRDRTCNVSSHGIDGCDLLCCGRGHNARAERRREKCRCVFHWCCYVSCQECTRVYDVHTCK
- CD144+ cells ([4]; 150 ng/ml added to the priming medium, day 4 induction medium + VEGF-A 50 ng/ml): 0.8%
